Values of other authors as cited in patent US8728553B2, “Vitamin containing product” (Nattopharma ASA, priority 2000, dated 2014).

Conditions: intake of 5 g butter to which 800 μg MK-4 had been added (equivalent to 16 mg MK-4 per 100 g butter)

Question: For `CC(C)=CCC/C(C)=C/CC/C(C)=C/CC/C(C)=C/CC1=C(C)C(=O)c2ccccc2C1=O` [MK-4, menaquinone (MK-4)], which “MK-4 levels in blood serum” value is on record?
Answer: increased
